Patent publication US20230257396A1, “MACROCYCLES AND THEIR USE” (BLOSSOMHILL THERAPEUTICS, INC., priority 2020, published 2023)
Numbering of substitutions follows the chain as printed.

Legend:
Test in all cases: KINOMEscan kinase binding assay (Eurofins/DiscoveRx), % Ctrl
kinases [1] = molecular target: T1, kinases (Homo sapiens, UniProt P10721, T670I/V559D)
T1 construct: purchased Eurofins/DiscoveRx; host or cells: E. coli BL21-derived host (T7 phage display) for most kinases; HEK-293 for the rest
T1 sequence (P10721 26-976 V559D/T670I): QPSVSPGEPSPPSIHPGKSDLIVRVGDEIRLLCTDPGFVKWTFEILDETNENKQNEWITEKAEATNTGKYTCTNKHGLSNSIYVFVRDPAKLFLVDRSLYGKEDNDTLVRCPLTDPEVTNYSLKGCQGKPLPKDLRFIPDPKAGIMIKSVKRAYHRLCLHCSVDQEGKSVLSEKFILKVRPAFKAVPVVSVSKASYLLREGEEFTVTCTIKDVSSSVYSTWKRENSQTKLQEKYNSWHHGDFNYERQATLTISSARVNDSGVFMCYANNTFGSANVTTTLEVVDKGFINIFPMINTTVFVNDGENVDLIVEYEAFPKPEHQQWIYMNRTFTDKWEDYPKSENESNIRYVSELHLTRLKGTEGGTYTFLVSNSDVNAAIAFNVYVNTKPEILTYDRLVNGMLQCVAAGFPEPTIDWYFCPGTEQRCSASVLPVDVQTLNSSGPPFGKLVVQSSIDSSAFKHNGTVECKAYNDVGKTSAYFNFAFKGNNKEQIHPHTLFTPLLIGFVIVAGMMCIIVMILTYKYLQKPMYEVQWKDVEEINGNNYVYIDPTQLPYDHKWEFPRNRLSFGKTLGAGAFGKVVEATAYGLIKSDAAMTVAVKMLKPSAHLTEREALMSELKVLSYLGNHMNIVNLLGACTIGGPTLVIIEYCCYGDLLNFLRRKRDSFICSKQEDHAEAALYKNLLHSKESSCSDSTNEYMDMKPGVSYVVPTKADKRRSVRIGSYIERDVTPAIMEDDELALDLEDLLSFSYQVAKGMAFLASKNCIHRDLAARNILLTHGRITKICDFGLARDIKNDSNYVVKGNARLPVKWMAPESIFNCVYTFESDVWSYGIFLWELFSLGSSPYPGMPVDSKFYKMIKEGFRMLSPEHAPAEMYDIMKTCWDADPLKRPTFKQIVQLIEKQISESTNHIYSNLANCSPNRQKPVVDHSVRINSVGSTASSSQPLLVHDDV
Method in brief: (§1)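 Competition binding, 1 h RT: phage-tagged or HEK-293-expressed DNA-tagged kinase + immobilized ligand + compound. Eluate kinase by qPCR. % Ctrl = (test − positive ctrl)/(negative ctrl − positive ctrl) × 100; lower means stronger binding.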

kinases [2] = molecular target: T2, kinases (Homo sapiens, UniProt P10721, L576P)
T2 construct: purchased Eurofins/DiscoveRx; host or cells: E. coli BL21-derived host (T7 phage display) for most kinases; HEK-293 for the rest
T2 sequence (P10721 26-976 L576P): as the sequence (P10721 26-976 V559D/T670I) above, with D534V, L551P, I645T counted along it
Method in brief: as §1

kinases [3] = molecular target: T3, kinases (Homo sapiens, UniProt P36888, R834Q)
T3 construct: purchased Eurofins/DiscoveRx; host or cells: E. coli BL21-derived host (T7 phage display) for most kinases; HEK-293 for the rest
T3 sequence (P36888 27-993 R834Q): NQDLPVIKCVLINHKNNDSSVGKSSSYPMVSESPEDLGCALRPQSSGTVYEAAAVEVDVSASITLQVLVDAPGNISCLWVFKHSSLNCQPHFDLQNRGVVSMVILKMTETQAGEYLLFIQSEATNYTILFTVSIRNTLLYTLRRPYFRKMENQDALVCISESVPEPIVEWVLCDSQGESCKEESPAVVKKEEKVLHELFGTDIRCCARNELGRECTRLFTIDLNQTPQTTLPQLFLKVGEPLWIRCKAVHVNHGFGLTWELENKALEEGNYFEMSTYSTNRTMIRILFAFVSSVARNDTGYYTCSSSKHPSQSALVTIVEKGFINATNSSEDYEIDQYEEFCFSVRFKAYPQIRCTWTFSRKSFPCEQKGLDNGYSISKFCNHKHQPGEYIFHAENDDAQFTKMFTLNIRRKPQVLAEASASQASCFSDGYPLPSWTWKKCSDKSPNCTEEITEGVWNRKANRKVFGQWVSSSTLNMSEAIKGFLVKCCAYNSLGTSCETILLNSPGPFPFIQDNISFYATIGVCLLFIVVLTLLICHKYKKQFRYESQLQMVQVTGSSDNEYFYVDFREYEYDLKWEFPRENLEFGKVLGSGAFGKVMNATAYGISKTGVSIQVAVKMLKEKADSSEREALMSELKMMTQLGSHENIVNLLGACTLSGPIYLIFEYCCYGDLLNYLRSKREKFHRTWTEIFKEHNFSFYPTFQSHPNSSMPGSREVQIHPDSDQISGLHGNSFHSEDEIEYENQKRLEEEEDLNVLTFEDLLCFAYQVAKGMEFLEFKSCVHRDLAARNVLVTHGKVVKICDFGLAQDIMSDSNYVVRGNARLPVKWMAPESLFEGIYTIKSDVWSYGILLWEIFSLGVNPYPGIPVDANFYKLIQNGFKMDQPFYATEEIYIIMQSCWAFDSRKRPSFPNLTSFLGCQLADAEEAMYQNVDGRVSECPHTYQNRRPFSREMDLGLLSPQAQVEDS
Method in brief: as §1

kinases [4] = molecular target: T4, kinases (Homo sapiens, UniProt P36888, K663Q)
T4 construct: purchased Eurofins/DiscoveRx; host or cells: E. coli BL21-derived host (T7 phage display) for most kinases; HEK-293 for the rest
T4 sequence (P36888 27-993 K663Q): T3 sequence (P36888 27-993 R834Q) with K637Q, Q808R
Method in brief: as §1

kinases [5] = molecular target: T5, kinases (Homo sapiens, UniProt P00519, F317L)
T5 construct: purchased Eurofins/DiscoveRx; host or cells: E. coli BL21-derived host (T7 phage display) for most kinases; HEK-293 for the rest
T5 sequence (P00519 whole entry F317L): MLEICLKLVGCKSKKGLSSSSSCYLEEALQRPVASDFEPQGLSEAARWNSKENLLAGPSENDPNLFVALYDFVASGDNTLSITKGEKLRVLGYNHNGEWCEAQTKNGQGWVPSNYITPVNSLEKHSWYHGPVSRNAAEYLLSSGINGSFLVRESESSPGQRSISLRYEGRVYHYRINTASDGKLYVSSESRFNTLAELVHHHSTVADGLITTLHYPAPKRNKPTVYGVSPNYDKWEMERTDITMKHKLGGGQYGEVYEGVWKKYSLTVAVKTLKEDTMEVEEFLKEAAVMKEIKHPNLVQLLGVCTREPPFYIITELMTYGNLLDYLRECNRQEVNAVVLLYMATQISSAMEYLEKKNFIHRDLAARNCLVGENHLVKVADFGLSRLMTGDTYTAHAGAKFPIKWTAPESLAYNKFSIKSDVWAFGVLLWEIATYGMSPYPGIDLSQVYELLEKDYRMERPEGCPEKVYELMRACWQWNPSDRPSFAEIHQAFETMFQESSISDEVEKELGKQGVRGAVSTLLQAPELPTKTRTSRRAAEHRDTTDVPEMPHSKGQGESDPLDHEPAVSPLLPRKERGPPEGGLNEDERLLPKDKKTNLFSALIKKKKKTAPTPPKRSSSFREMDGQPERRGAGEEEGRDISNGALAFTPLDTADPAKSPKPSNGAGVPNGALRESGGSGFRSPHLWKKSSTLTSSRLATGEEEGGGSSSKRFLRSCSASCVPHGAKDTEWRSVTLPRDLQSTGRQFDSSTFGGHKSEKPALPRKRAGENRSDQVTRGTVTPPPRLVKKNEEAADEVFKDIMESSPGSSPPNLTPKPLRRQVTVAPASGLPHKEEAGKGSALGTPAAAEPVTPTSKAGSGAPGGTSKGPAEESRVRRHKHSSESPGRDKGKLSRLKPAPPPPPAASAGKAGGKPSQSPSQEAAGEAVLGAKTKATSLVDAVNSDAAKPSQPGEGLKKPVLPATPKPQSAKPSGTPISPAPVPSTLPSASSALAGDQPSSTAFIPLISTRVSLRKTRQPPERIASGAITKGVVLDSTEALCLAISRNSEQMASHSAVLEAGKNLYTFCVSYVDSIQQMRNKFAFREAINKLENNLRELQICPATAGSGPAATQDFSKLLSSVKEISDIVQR
Method in brief: as §1

[6] = 1 μM; target ABL1(F317L)-nonphosphorylated
[7] = 1 μM; target ABL1(F317L)-phosphorylated
[8] = 1 μM; ABL1(F317L)-nonphosphorylated
[9] = 1 μM; ABL1(F317L)-phosphorylated

Row | % Ctrl, KIT(V559D, T670I) (kinases [1]; 1 μM; KIT(V559D, T670I)) | % Ctrl, KIT(L576P) (kinases [2]; 1 μM; KIT(L576P)) | % Ctrl, FLT3(R834Q) (kinases [3]; 1 μM; FLT3(R834Q)) | % Ctrl, FLT3(K663Q) (kinases [4]; 1 μM; FLT3(K663Q)) | % Ctrl, ABL1(F317L)-nonphosphorylated (kinases [5]; [8]) | % Ctrl, ABL1(F317L)-phosphorylated (kinases [5]; [9]) | SMILES | also measured
1 |  |  |  |  |  |  | Cc1cc2c([nH]1)/C=C1\C(=O)Nc3cnc(cc31)-c1cnn(C)c1CN(C)CCN(C)C2=O [Ex. 172, [3a(4)Z]-6,9,12,14-tetramethyl-9,10,11,12,13,14-hexahydro-17,1-(azenometheno)pyrazolo[4,3-m]dipyrrolo[3,2-f:3′,4′-i][1,4]diazacyclopentadecine-3,8(2H,5H)-dione] | % Ctrl, KIT(V559D, T670I) (kinases [1]; 1 μM; target KIT(V559D, T670I)): 48 % Ctrl; % Ctrl, KIT(L576P) (kinases [2]; 1 μM; target KIT(L576P)): 16 % Ctrl; % Ctrl, FLT3(R834Q) (kinases [3]; 1 μM; target FLT3(R834Q)): 16 % Ctrl; % Ctrl, FLT3(K663Q) (kinases [4]; 1 μM; target FLT3(K663Q)): 0.6 % Ctrl; % Ctrl, ABL1(F317L)-nonphosphorylated (kinases [5]; [6]): 7.1 % Ctrl; % Ctrl, ABL1(F317L)-phosphorylated (kinases [5]; [7]): 1.9 % Ctrl
2 | 96 % Ctrl | 98 % Ctrl | 39 % Ctrl | 44 % Ctrl | 87 % Ctrl | 100 % Ctrl | Cc1cc2c([nH]1)/C=C1\C(=O)Nc3ccc(cc31)CN(C)C(=O)COCCNC2=O [Ex.111, [17a(18)Z]-2,11-dimethyl-6,7,11,12-tetrahydro-1H-13,15-(ethanediylidene)dipyrrolo[3,2-f:3′,4′-i][1,4,14]oxadiazacyclohexadecine-4,10,17(5H,9H,16H)-trione] | 
3 | 100 % Ctrl | 100 % Ctrl | 100 % Ctrl | 84 % Ctrl | 100 % Ctrl | 100 % Ctrl | Cc1cc2c([nH]1)/C=C1\C(=O)Nc3cnc(nc31)N(C)CCCOCCN(C)C2=O [Ex.71, [17a(18)Z]-2,5,12-trimethyl-6,7,9,10,11,12-hexahydro-1H-13,15-(azenometheno)dipyrrolo[3,2-f:3′,4′-i][1,4,11,13]oxatriazacyclohexadecine-4,17(5H,16H)-dione] | 
4 | 24 % Ctrl | 4.2 % Ctrl | 0 % Ctrl | 13 % Ctrl | 0 % Ctrl | 0.2 % Ctrl | Cc1cc2c([nH]1)/C=C1\C(=O)Nc3ccc(cc31)-c1cnn(C)c1COCCN(C)C2=O [Ex. 124, [3a(4)Z]-6,9,14-trimethyl-10,11,13,14-tetrahydro-2H-1,17-(ethanediylidene)pyrazolo[4,3-m]dipyrrolo[3,2-f:3′,4′-i][1,4]oxazacyclopentadecine-3,8(5H,9H)-dione] | 
5 |  |  |  |  |  |  | CN1CCOc2cc3c(cc2Cl)NC(=O)/C3=C\c2[nH]ccc2C(=O)N(C)CC1 [Ex. 164, [16a(17)Z]-19-chloro-2,5,8-trimethyl-5,6,7,8,9,10-hexahydro-12,14-(ethanediylidene)dipyrrolo[3,2-i:3′,4′-l][1,4,7]oxadiazacyclopentadecine-4,16(1H,15H)-dione] | % Ctrl, KIT(V559D, T670I) (kinases [1]; 1 μM; target KIT(V559D, T670I)): 2.4 % Ctrl; % Ctrl, KIT(L576P) (kinases [2]; 1 μM; target KIT(L576P)): 0.9 % Ctrl; % Ctrl, FLT3(R834Q) (kinases [3]; 1 μM; target FLT3(R834Q)): 13 % Ctrl; % Ctrl, FLT3(K663Q) (kinases [4]; 1 μM; target FLT3(K663Q)): 1.4 % Ctrl; % Ctrl, ABL1(F317L)-nonphosphorylated (kinases [5]; [6]): 1.6 % Ctrl; % Ctrl, ABL1(F317L)-phosphorylated (kinases [5]; [7]): 1.3 % Ctrl
6 |  |  |  |  |  |  | Cc1cc2c([nH]1)/C=C1\C(=O)Nc3ccc(cc31)-c1c(noc1C)CNCCN(C)C2=O [Ex. 139, [3a(4)Z]-6,9,16-trimethyl-10,11,12,13-tetrahydro-2H-1,17-(ethanediylidene)[1,2]oxazolo[4,3-m]dipyrrolo[3,2-f:3′,4′-i][1,4]diazacyclopentadecine-3,8(5H,9H)-dione] | % Ctrl, KIT(V559D, T670I) (kinases [1]; target KIT(V559D, T670I); 1 μM): 69 % Ctrl; % Ctrl, KIT(L576P) (kinases [2]; target KIT(L576P); 1 μM): 84 % Ctrl; % Ctrl, FLT3(R834Q) (kinases [3]; target FLT3(R834Q); 1 μM): 39 % Ctrl; % Ctrl, FLT3(K663Q) (kinases [4]; target FLT3(K663Q); 1 μM): 44 % Ctrl; % Ctrl, ABL1(F317L)-nonphosphorylated (kinases [5]; target ABL1(F317L)-nonphosphorylated; 1 μM): 48 % Ctrl; % Ctrl, ABL1(F317L)-phosphorylated (kinases [5]; target ABL1(F317L)-phosphorylated; 1 μM): 39 % Ctrl
7 | 85 % Ctrl | 100 % Ctrl | 93 % Ctrl | 100 % Ctrl | 98 % Ctrl | 60 % Ctrl | Cc1cc2c([nH]1)/C=C1\C(=O)Nc3ccc(cc31)-c1ccnn1CCOCCNC2=O [Ex.39, [19a(20)Z]-2-methyl-6,7,9,10-tetrahydro-1H-15,17-(ethanediylidene)pyrazolo[1,5-d]dipyrrolo[3,4-h:2′,3′-k][1,4,14]oxadiazacyclohexadecine-4,19(5H,18H)-dione] | 
